Experimental data from PubChem BioAssay (NCI).
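Cultured in 96-well plates, cells were exposed to test compound for 48 hours across five concentrations. TGI denotes the concentration required for complete inhibition of growth.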

How the values were obtained:
Assay in all cases: growth of human tumour cells (NCI), 48 h
786-0 renal = test system: 786-0 renal
A498 renal = test system: A498 renal
A549 NSCLC = test system: A549 NSCLC
ACHN renal = test system: ACHN renal
BT-549 breast = test system: BT-549 breast
CAKI-1 renal = test system: CAKI-1 renal
CCRF-CEM leukemia = test system: CCRF-CEM leukemia
COLO 205 colon = test system: COLO 205 colon
DU-145 prostate = test system: DU-145 prostate
EKVX NSCLC = test system: EKVX NSCLC
HCC-2998 colon = test system: HCC-2998 colon
HCT-116 colon = test system: HCT-116 colon
HCT-15 colon = test system: HCT-15 colon
HL-60(TB) leukemia = test system: HL-60(TB) leukemia
HOP-62 NSCLC = test system: HOP-62 NSCLC
HOP-92 NSCLC = test system: HOP-92 NSCLC
HS 578T breast = test system: HS 578T breast
HT29 colon = test system: HT29 colon
IGROV1 ovarian = test system: IGROV1 ovarian
K-562 leukemia = test system: K-562 leukemia
KM12 colon = test system: KM12 colon
LOX IMVI melanoma = test system: LOX IMVI melanoma
M14 melanoma = test system: M14 melanoma
MALME-3M melanoma = test system: MALME-3M melanoma
MCF7 breast = test system: MCF7 breast
MDA-MB-231 breast = test system: MDA-MB-231 breast
MDA-MB-435 = test system: MDA-MB-435
MDA-N = test system: MDA-N
MOLT-4 leukemia = test system: MOLT-4 leukemia
NCI-H226 lung = test system: NCI-H226 lung
NCI-H23 lung = test system: NCI-H23 lung
NCI-H460 lung = test system: NCI-H460 lung
NCI-H522 lung = test system: NCI-H522 lung
NCI/ADR-RES ovarian = test system: NCI/ADR-RES ovarian
OVCAR-3 ovarian = test system: OVCAR-3 ovarian
OVCAR-4 ovarian = test system: OVCAR-4 ovarian
OVCAR-5 ovarian = test system: OVCAR-5 ovarian
OVCAR-8 ovarian = test system: OVCAR-8 ovarian
PC-3 prostate = test system: PC-3 prostate
RPMI-8226 leukemia = test system: RPMI-8226 leukemia
RXF 393 renal = test system: RXF 393 renal
SF-268 CNS = test system: SF-268 CNS
SF-295 CNS = test system: SF-295 CNS
SF-539 CNS = test system: SF-539 CNS
SK-MEL-2 melanoma = test system: SK-MEL-2 melanoma
SK-MEL-28 melanoma = test system: SK-MEL-28 melanoma
SK-MEL-5 melanoma = test system: SK-MEL-5 melanoma
SK-OV-3 ovarian = test system: SK-OV-3 ovarian
SN12C renal = test system: SN12C renal
SNB-19 CNS = test system: SNB-19 CNS
SNB-75 CNS = test system: SNB-75 CNS
SR leukemia = test system: SR leukemia
SW-620 colon = test system: SW-620 colon
T-47D breast = test system: T-47D breast
TK-10 renal = test system: TK-10 renal
U251 CNS = test system: U251 CNS
UACC-257 melanoma = test system: UACC-257 melanoma
UACC-62 melanoma = test system: UACC-62 melanoma
UO-31 renal = test system: UO-31 renal

## CCOP(=O)(OCC)C(=C1C=C(C(C)(C)C)C(=O)C(C(C)(C)C)=C1)P(=O)(OCC)OCC
786-0 renal
  TGI: > 5.51 µM
A498 renal
  TGI: > 10 µM
A549 NSCLC
  TGI: > 10 µM
ACHN renal
  TGI: > 3.16 µM
BT-549 breast
  TGI: 5.16 µM
CAKI-1 renal
  TGI: > 6.25 µM
CCRF-CEM leukemia
  TGI: > 6.32 µM
COLO 205 colon
  TGI: 4.2 µM
DU-145 prostate
  TGI: > 10 µM
EKVX NSCLC
  TGI: > 10 µM
HCC-2998 colon
  TGI: > 10 µM
HCT-116 colon
  TGI: 5.67 µM
HCT-15 colon
  TGI: > 6.87 µM
HL-60(TB) leukemia
  TGI: > 7.36 µM
HOP-62 NSCLC
  TGI: > 10 µM
HOP-92 NSCLC
  TGI: 6.37 µM
HS 578T breast
  TGI: > 10 µM
HT29 colon
  TGI: > 10 µM
IGROV1 ovarian
  TGI: > 10 µM
K-562 leukemia
  TGI: > 7.45 µM
KM12 colon
  TGI: > 10 µM
LOX IMVI melanoma
  TGI: > 10 µM
M14 melanoma
  TGI: 4.11 µM
MALME-3M melanoma
  TGI: 3.38 µM
MCF7 breast
  TGI: > 10 µM
MDA-MB-231 breast
  TGI: > 10 µM
MDA-MB-435
  TGI: > 10 µM
MDA-N
  TGI: > 9.4 µM
MOLT-4 leukemia
  TGI: > 10 µM
NCI-H226 lung
  TGI: > 10 µM
NCI-H23 lung
  TGI: > 10 µM
NCI-H460 lung
  TGI: > 10 µM
NCI-H522 lung
  TGI: 4.29 µM
NCI/ADR-RES ovarian
  TGI: > 10 µM
OVCAR-3 ovarian
  TGI: > 5.55 µM
OVCAR-4 ovarian
  TGI: 3.5 µM
OVCAR-5 ovarian
  TGI: > 10 µM
OVCAR-8 ovarian
  TGI: > 10 µM
PC-3 prostate
  TGI: > 10 µM
RPMI-8226 leukemia
  TGI: > 10 µM
RXF 393 renal
  TGI: > 10 µM
SF-268 CNS
  TGI: > 10 µM
SF-295 CNS
  TGI: > 10 µM
SF-539 CNS
  TGI: > 10 µM
SK-MEL-2 melanoma
  TGI: > 10 µM
SK-MEL-28 melanoma
  TGI: > 10 µM
SK-MEL-5 melanoma
  TGI: > 10 µM
SK-OV-3 ovarian
  TGI: > 10 µM
SN12C renal
  TGI: > 10 µM
SNB-19 CNS
  TGI: > 10 µM
SNB-75 CNS
  TGI: > 10 µM
SR leukemia
  TGI: > 10 µM
SW-620 colon
  TGI: 3.55 µM
T-47D breast
  TGI: 4.04 µM
TK-10 renal
  TGI: > 7.39 µM
U251 CNS
  TGI: > 10 µM
UACC-257 melanoma
  TGI: > 10 µM
UACC-62 melanoma
  TGI: > 10 µM
UO-31 renal
  TGI: > 10 µM
